Measurements published in US11236084B2, “Substituted azaindoline derivatives as NIK inhibitors” (Janssen Pharmaceutica NV, priority 2017, dated 2022).
Where two headings read alike, the source gives them in different places.

How the values were obtained:
[1] = target: recombinant human NF-kappaB-inducing kinase (NIK/MAP3K14) (Homo sapiens, UniProt Q99558); experiment: Biological Assay B: inhibition of auto-phosphorylation of recombinant human NIK/MAP3K14 (AlphaScreen), performed at 2 locations; format: biochemical; conditions: averaged values
Sequence of recombinant human NF-kappaB-inducing kinase (NIK/MAP3K14) (Q99558 whole entry): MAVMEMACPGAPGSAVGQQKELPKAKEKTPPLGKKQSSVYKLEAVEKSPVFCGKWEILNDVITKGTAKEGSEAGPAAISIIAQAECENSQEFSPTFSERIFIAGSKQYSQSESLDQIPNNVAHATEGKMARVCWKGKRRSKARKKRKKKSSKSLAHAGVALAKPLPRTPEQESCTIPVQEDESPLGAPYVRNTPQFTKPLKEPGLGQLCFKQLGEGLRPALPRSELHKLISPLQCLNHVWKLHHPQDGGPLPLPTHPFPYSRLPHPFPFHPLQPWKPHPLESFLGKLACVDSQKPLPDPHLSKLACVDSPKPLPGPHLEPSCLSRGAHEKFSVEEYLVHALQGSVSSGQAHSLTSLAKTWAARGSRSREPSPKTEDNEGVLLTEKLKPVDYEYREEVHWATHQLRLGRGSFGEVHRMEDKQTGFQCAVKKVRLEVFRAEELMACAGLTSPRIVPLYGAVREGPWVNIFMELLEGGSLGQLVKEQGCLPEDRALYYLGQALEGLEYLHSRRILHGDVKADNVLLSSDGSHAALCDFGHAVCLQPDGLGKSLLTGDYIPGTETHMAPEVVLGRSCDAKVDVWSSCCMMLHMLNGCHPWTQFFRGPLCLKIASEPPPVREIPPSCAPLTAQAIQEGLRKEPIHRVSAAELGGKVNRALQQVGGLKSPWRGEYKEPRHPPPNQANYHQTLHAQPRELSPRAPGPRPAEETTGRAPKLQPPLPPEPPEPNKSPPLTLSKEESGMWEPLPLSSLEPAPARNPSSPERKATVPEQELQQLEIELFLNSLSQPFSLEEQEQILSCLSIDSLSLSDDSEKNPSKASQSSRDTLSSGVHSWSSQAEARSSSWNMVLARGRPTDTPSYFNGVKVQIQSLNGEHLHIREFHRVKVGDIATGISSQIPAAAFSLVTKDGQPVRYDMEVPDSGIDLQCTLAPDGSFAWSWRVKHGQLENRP
Method in brief: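 Run at two separate sites: 1 h, 25° C. reactions containing 0.2 nM GST-NIK, 25 microM ATP and compound (1% DMSO) in Tris pH 7.5/MgCl2 buffer. Phosphorylation detected via anti-phospho-IKK Ser176/180 antibody with AlphaScreen beads; IC50 fitted to % inhibition.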

[2] = test system: P-IKKα levels in L363 (NIK translocated multiple myeloma) cells; experiment: Biological Assay C: effect of compounds on P-IKKα levels in L363 (NIK translocated multiple myeloma) cells, performed at 2 locations; format: cell-based, human; conditions: averaged values
Experimental: Effect of Compounds on P-IKKα Levels in L363 (NIK Translocated Multiple Myeloma) Cells
All compounds tested were dissolved in DMSO and further dilutions were made in culture medium. Final DMSO concentration was 1% (v/v) in cell assays. The human L363 cells (ATCC) were cultured in RPMI 1640 medium supplemented with GlutaMax and 10% fetal calf serum (PAA). Cells were routinely maintained at densities of 0.2×10^6 cells per ml-1×10^6 cells per ml at 37° C. in a humidified 5% CO2 atmosphere. Cells were passaged twice a week splitting back to obtain the low density. Cells were seeded in 96 well plates (Nunc 167008) at 2×10^6 per ml media in a volume of 75 μl per well plus 25 μl […] recombinant human B-cell activating factor (BAFF/BLyS/TNFSF13B). Seeded cells were incubated at 37° C. in a humidified 5% CO2 atmosphere for 24 hr. Drugs and/or solvents were added (20 μl) to a final volume of 120 μl. Following 2 hr treatment plates were removed from the incubator and cell lysis was achieved by the addition of 30 μl 5× lysis buffer followed by shaking on a plate shaker at 4° C. for 10 min. At the end of this incubation lysed cells were centrifuged at 800×g for 20 min at 4° C. and the lysate was assessed for P-IKKα levels by sandwich immuno-assay carried out in anti-rabbit antibody coated Mesoscale plates. Within an experiment, the results for each treatment were the mean of 2 replicate wells. For initial screening purposes, compounds were tested using an 8 point dilution curve (serial 1:3 dilutions). For each experiment, controls (containing MG132 and BAFF but no test drug) and a blank incubation (containing MG132 and BAFF and 1 μM ADS125117, a test concentration known to give full inhibition) were run in parallel. The blank incubation value was subtracted from all control and sample values. To determine the IC50 a sigmoidal curve was fitted to the plot of % inhibition of control P-IKKα levels versus Log10 compound concentration.
Assay C was performed at 2 different locations.
Data for the compounds of the invention in the above assays are provided in Table A (the values in Table are averaged values over all measurements on all batches of a compound; values as IC50 (nM)). (‘n.c.’ means not calculated: ‘Co.’ means compound)

[3] = location 1, AlphaScreen auto-phosphorylation, read-out: Assay B location 1 IC50
[4] = location 2, AlphaScreen auto-phosphorylation, read-out: Assay B location 2 IC50
[5] = Homo sapiens, L-363, location 1, L363 cells, P-IKKα levels, read-out: Assay C location 1 IC50
[6] = location 1, NIK auto-phosphorylation, AlphaScreen, read-out: Assay B location 1 IC50
[7] = Homo sapiens, L-363, location 2, L363 cells, P-IKKα levels, read-out: Assay C location 2 IC50

IC50 [1, 3] [nM]	IC50 [1, 4] [nM]	IC50 [2, 5] [nM]	IC50 [2, 7] [nM]	SMILES	other results
6.7	1.3	17.3		COc1cc(N2CC3(CCOCC3)C2)c(Cl)cc1Nc1nccc(-c2cnc3c(c2)C(C)(CO)CN3)n1 (single isomer, unassigned) [Compound 3S]	
	2.3	~151		COc1cc(N2CCOCC2)c(C#N)cc1Nc1nccc(-c2cnc3c(c2)C(C)(CO)CN3)n1 (single isomer, unassigned) [Compound 4S]	
151	123	9120		CN(C)CCOc1cc(N2CCOCC2)c(Cl)cc1Nc1nccc(-c2cnc3c(c2)C(C)(CO)CN3)n1 (single isomer, unassigned) [Compound 272]	
				COc1cc(N2CCC(O)CC2)c(Cl)cc1Nc1nccc(-c2cnc3c(c2)C(C)(CO)CN3)n1 (single isomer, unassigned) [Compound 343]	IC50 [1, 6]: 19.1 nM; IC50 ([2]; location 1, P-IKKα levels in L363 cells, 2 hr treatment, read-out: Assay C location 1 IC50): ~7410 nM
5.5			69.2	COc1cc(C(=O)NC2CCOCC2)ccc1Nc1ncc(F)c(-c2cnc3c(c2)C(C)(CO)CN3)n1 (centres unmarked) [Compound 2]	
10.5	2.9	138		COc1cc(N2CCOCC2)c(C#N)cc1Nc1nccc(-c2cnc3c(c2)C(C)(CO)CN3)n1 (centres unmarked) [Compound 4]	
4.6	1.6	8.3		COc1cc(C(=O)NC2CCOCC2)c(Cl)cc1Nc1nccc(-c2cnc3c(c2)C(C)(CO)CN3)n1 (centres unmarked) [Compound 8]	
5.4	1.6	26.9		COc1cc(S(C)(=O)=O)c(F)cc1Nc1nccc(-c2cnc3c(c2)C(C)(CO)CN3)n1 (centres unmarked) [Compound 12]	
~3	0.9	19.5		COc1cc(N2CCN(C(C)C)CC2)c(Cl)cc1Nc1nccc(-c2cnc3c(c2)C(C)(CO)CN3)n1 (centres unmarked) [Compound 14]	
8.5		479		CN1CCC(Oc2ccc(Cl)cc2Nc2nccc(-c3cnc4c(c3)C(C)(CO)CN4)n2)CC1 (centres unmarked) [Compound 15]	
			851	Cc1cc(C(=O)NC2CCN(C)CC2)ccc1Nc1nccc(-c2cnc3c(c2)C(C)(C)CN3)n1 [Compound 35]	
			617	Cc1cc(C(=O)NC2CCOCC2)ccc1Nc1nccc(-c2cnc3c(c2)C(C)(C)CN3)n1 [Compound 36]	
			166	CC(=O)NCc1cccc(Nc2nccc(-c3cnc4c(c3)C(C)(C)CN4)n2)c1C [Compound 42]	
			282	CC(=O)NCc1ccc(C)c(Nc2nccc(-c3cnc4c(c3)C(C)(C)CN4)n2)c1 [Compound 43]	
	3.3	355	229	COc1cc(C(=O)N2CCC(OC)C2)ccc1Nc1nccc(-c2cnc3c(c2)C(C)(CO)CN3)n1 (centres unmarked) [Compound 136]	
	5	339	347	COc1cc(C(=O)NC2CCOC2)ccc1Nc1nccc(-c2cnc3c(c2)C(C)(CO)CN3)n1 (centres unmarked) [Compound 137]	
	6.3		234	COc1cc(C(=O)N2CCCC2)ccc1Nc1nccc(-c2cnc3c(c2)C(C)(CO)CN3)n1 (centres unmarked) [Compound 138]	
6.9	6.9	166	102	COc1cc(C(=O)N2CCCCC2)ccc1Nc1nccc(-c2cnc3c(c2)C(C)(CO)CN3)n1 (centres unmarked) [Compound 139]	
	4.5		1070	CC1(CO)CNc2ncc(-c3ccnc(Nc4ccc(C(=O)NC5CCOCC5)cc4OC(F)F)n3)cc21 (centres unmarked) [Compound 140]	
	10.2		148	COc1cc(C(=O)N2CCCCCC2)ccc1Nc1nccc(-c2cnc3c(c2)C(C)(CO)CN3)n1 (centres unmarked) [Compound 141]	
	13.5	309	204	COc1cc(C(=O)NC2CCCOCC2)ccc1Nc1nccc(-c2cnc3c(c2)C(C)(CO)CN3)n1 (centres unmarked) [Compound 142]	
17	14.5		224	COc1cc(C(=O)N2CCN(C)CC2)ccc1Nc1nccc(-c2cnc3c(c2)C(C)(CO)CN3)n1 (centres unmarked) [Compound 143]	
	7.2		324	COc1cc(CNC(C)=O)ccc1Nc1nccc(-c2cnc3c(c2)C(C)(CO)CN3)n1 (centres unmarked) [Compound 145]	

IC50 [1, 3] [nM]	IC50 [1, 4] [nM]	IC50 [2, 5] [nM]	IC50 [2, 7] [nM]	SMILES	other results
	4.1		52.5	COc1cc(C(=O)NC2CCOCC2)ccc1Nc1nccc(-c2cnc3c(c2)C(C)(CC#N)CN3)n1 (centres unmarked) [Compound 147]	
	4.8		158	COc1cc(C(=O)N2CCC(OC)CC2)ccc1Nc1nccc(-c2cnc3c(c2)C(C)(CC#N)CN3)n1 (centres unmarked) [Compound 148]	
	5.4		105	COc1cc(C(=O)N2CCCC(OC)CC2)ccc1Nc1nccc(-c2cnc3c(c2)C(C)(CO)CN3)n1 (centres unmarked) [Compound 150]	
	17.8	~912	676	COc1ccccc1Nc1nccc(-c2cnc3c(c2)C(C)(CO)CN3)n1 (centres unmarked) [Compound 151]	
18.6			427	COc1cc(C(=O)N(C)C)ccc1Nc1nccc(-c2cnc3c(c2)C(C)(CO)CN3)n1 (centres unmarked) [Compound 153]	
30.9	17.8	~2000		CN1CCC(Oc2ccccc2Nc2nccc(-c3cnc4c(c3)C(C)(CO)CN4)n2)CC1 (centres unmarked) [Compound 246]	
4.7	0.5	28.8		COc1cc(N2CCN(C)CC2)c(Cl)cc1Nc1nccc(-c2cnc3c(c2)C(C)(CO)CN3)n1 (centres unmarked) [Compound 267]	
	1.8	41.7		COc1cc(N2CC(OC)C2)c(Cl)cc1Nc1nccc(-c2cnc3c(c2)C(C)(CO)CN3)n1 (centres unmarked) [Compound 269]	
~3	0.4	23.4		COc1cc(N2CCC(N(C)C)CC2)c(Cl)cc1Nc1nccc(-c2cnc3c(c2)C(C)(CO)CN3)n1 (centres unmarked) [Compound 277]	
3.2	0.9	29.5		COc1cc(C(=O)NC2CCOCC2)c(Cl)cc1Nc1nccc(-c2cnc3c(c2)C(C)(C)CN3)n1 [Compound 299]	
5.4	1.1	23.4		COc1cc(N2CCC(O)CC2)c(Cl)cc1Nc1nccc(-c2cnc3c(c2)C(C)(CO)CN3)n1 (centres unmarked) [Compound 301]	
6.5		79.4		COc1cc(S(C)(=O)=O)c(Cl)cc1Nc1nccc(-c2cnc3c(c2)C(C)(CO)CN3)n1 (centres unmarked) [Compound 331]	
3980		> 10000		CC1(CO)CNc2ncc(-c3ccnc(Nc4ccccc4S(C)(=O)=O)n3)cc21 (centres unmarked) [Compound 334]	
269		> 10000		CC1(CO)CNc2ncc(-c3ccnc(Nc4cc(Cl)ccc4S(C)(=O)=O)n3)cc21 (centres unmarked) [Compound 335]	
				CN1CCC(Oc2ccc(Cl)cc2Nc2nccc(-c3cnc4c(c3)C(C)(C)CN4)n2)CC1 [Compound 338]	IC50 [1, 6]: 19.1 nM; IC50 ([2]; Homo sapiens, L-363, 2 h, location 1, P-IKKα levels in L363 cells, 2 hr treatment, read-out: Assay C location 1 IC50): 3890 nM
22.9	12.9			Cc1cc(N2CCOCC2)c(F)cc1Nc1nccc(-c2cnc3c(c2)C(C)(CO)CN3)n1 (centres unmarked) [Compound 366]	
87.1	21.9			COCCOc1cc(N2CCOCC2)c(Cl)cc1Nc1nccc(-c2cnc3c(c2)C(C)(CO)CN3)n1 (centres unmarked) [Compound 367]	
191	112			COCCOc1cc(N2CCOCC2)c(F)cc1Nc1nccc(-c2cnc3c(c2)C(C)(CO)CN3)n1 (centres unmarked) [Compound 368]	
123	64.6			COCCOc1cc(N2CCOCC2)c(C#N)cc1Nc1nccc(-c2cnc3c(c2)C(C)(CO)CN3)n1 (centres unmarked) [Compound 369]	
1620	977			CN(C)CCOc1cc(N2CCOCC2)c(F)cc1Nc1nccc(-c2cnc3c(c2)C(C)(CO)CN3)n1 (centres unmarked) [Compound 370]	
437	209			CN(C)CCOc1cc(N2CCOCC2)c(Cl)cc1Nc1nccc(-c2cnc3c(c2)C(C)(CO)CN3)n1 (centres unmarked) [Compound 371]	
13.4	1.6			COc1cc(N2CC3(CCOCC3)C2)c(C#N)cc1Nc1nccc(-c2cnc3c(c2)C(C)(CO)CN3)n1 (centres unmarked) [Compound 372]	
